Assay results reported in patent publication US10526352B2, “Tricyclic benzoxaborole compounds and uses thereof” (GlaxoSmithKline Intellectual Property (No.2) Limited, priority 2013, dated 2020).
Converted amounts (≈) assume the structure as drawn. Like-named read-outs stand apart in the source and are kept apart here.

Tests used:
[1] = tested on: M. tuberculosis standard strain Mtb H37Rv; assay: MIC determination against mycobacteria (resazurin, Middlebrook 7H9); type: cell-based, Mycobacterium tuberculosis
A. baumannii ATCC 17978 = assay: General antimicrobial activity assay (CLSI broth microdilution); type: cell-based, Acinetobacter baumannii
Experimental: (§1) Whole-cell antimicrobial activity was determined by broth microdilution using the Clinical and Laboratory Standards Institute (CLSI) recommended procedure, Document M7-A7, “Methods for Dilution Susceptibility Tests for Bacteria that Grow Aerobically”.

P. aeruginosa PA01 = assay: as above; type: cell-based, Pseudomonas aeruginosa
Experimental: as §1

E. coli K12 tolC::Tn10 = assay: General antimicrobial activity assay (CLSI broth microdilution); type: cell-based, Escherichia coli
Experimental: as §1

E. coli K12 = assay: as above; type: cell-based, Escherichia coli
Experimental: as §1

[2] = tested on: M. tuberculosis clinical isolates; assay: MIC against clinical strains (BACTEC MGIT 960 System); type: cell-based; details: Mycobacterium tuberculosis
[3] = Mycobacterium tuberculosis, H37RV, read-out: Mtb H37Rv MIC (B)
[4] = HepG2 Tox50 (A) / Mtb H37Rv MIC (B)
[5] = Mycobacterium tuberculosis, H37RV; read-out: Mtb H37Rv MIC (B)

Compound	MIC [1, 3] [µM]	MIC: A. baumannii ATCC 17978 (A. baumannii ATCC 17978) [µg/mL]	MIC: P. aeruginosa PA01 (P. aeruginosa PA01) [µg/mL]	Selectivity Index (A/B) (HepG2 cells; [4])	HepG2 cell 48 h Tox50 (A) (HepG2 cells; human, 48 h) [µM]	MIC: E. coli K12 tolC::Tn10 (E. coli K12 tolC::Tn10) [µg/mL]	MIC: E. coli K12 (E. coli K12) [µg/mL]	HepG2 cell 48 h Tox50 (A) (HepG2 cells; 48 h) [µM]	other results
NCC1OB2OCCOc3cccc1c32 (racemic) [Example C2-H, reference compound]	1.88 (≈ 0.385 µg/mL)	2 (≈ 9.76 µM)	2 (≈ 9.76 µM)	>26	>50	4 (≈ 19.5 µM)	2 (≈ 9.76 µM)		
C[C@@]1(CO)COc2ccc(Cl)c3c2B(OC3CN)O1 (single isomer, unassigned) [Example 14, ((2S, 8R or 2R, 8S)-2-(aminomethyl)-3-chloro-8-methyl-7,8-dihydro-2H-1,6,9-trioxa-9a-borabenzo[cd]azulen-8-yl)methanol]	1.25 (≈ 0.354 µg/mL)			>4	>50				
Cl.NCC1OB2OCCOc3ccc(Br)c1c32 (stereo not drawn) [Example 1, 3-bromo-7,8-dihydro-2H-1,6,9-trioxa-9a-borabenzo[cd]azulen-2-yl)methanamine Hydrochloride]	0.18								
Cl.NCC1OB2OCCOc3ccc(Br)c1c32 (stereo not drawn) [Example 1]		>64	>64			>64	>64	>50	Selectivity Index (A/B) (HepG2 cells; hydrochloride): >277
Cl.NCC1OB2OCCOc3ccc(Cl)c1c32 (stereo not drawn) [Example 3, 3-chloro-7,8-dihydro-2H-1,6,9-trioxa-9a-borabenzo[cd]azulen-2-yl)methanamine hydrochloride]	0.47								
Cl.NCC1OB2OCCOc3ccc(Cl)c1c32 (stereo not drawn) [Example 3]		>64	>64			>64	>64	>50	Selectivity Index (A/B) (HepG2 cells; hydrochloride): >106
Cl.NCC1OB2OCCOc3ccc(F)c1c32 (stereo not drawn) [Example 5, (3-fluoro-7,8-dihydro-2H-1,6,9-trioxa-9a-borabenzo[cd]azulen-2-yl)methanamine hydrochloride)]	0.6								
Cl.NCC1OB2OCCOc3ccc(F)c1c32 (stereo not drawn) [Example 5]		>64	4			64	32		
Cl.NC[C@H]1OB2OCCOc3ccc(I)c1c32 [Example 6, (S)-(3-iodo-7,8-dihydro-2H-1,6,9-trioxa-9a-borabenzo[cd]azulen-2-yl)methanamine hydrochloride]	0.3								
CC1COc2ccc(Cl)c3c2B(O1)OC3CN.Cl (stereo not drawn) [Example 7, (3-chloro-8-methyl-7,8-dihydro-2H-1,6,9-trioxa-9a-borabenzo[cd]azulen-2-yl)methanamine Hydrochloride]	0.2	>64	>64			>64	>64	>50	Selectivity Index (A/B) (HepG2 cells): >250
CC1COc2ccc(Br)c3c2B(O1)OC3CN.Cl (stereo not drawn) [Example 8, (3-bromo-8-methyl-7,8-dihydro-2H-1,6,9-trioxa-9a-borabenzo[cd]azulen-2-yl)methanamine hydrochloride]	0.3	>64	>64			>64	>64	>50	Selectivity Index (A/B) (HepG2 cells): >167
CC1(C)COc2ccc(Br)c3c2B(OC3CN)O1.Cl (stereo not drawn) [Example 9, (3-bromo-8,8-dimethyl-7,8-dihydro-2H-1,6,9-trioxa-9a-borabenzo[cd]azulen-2-yl)methanamine hydrochloride]	0.3	>64	>64			>64	>64	>50	Selectivity Index (A/B) (HepG2 cells; hydrochloride): >167
CC1(C)COc2ccc(Br)c3c2B(O[C@@H]3CN)O1.Cl [Example 10, (S)-(3-bromo-8,8-dimethyl-7,8-dihydro-2H-1,6,9-trioxa-9a-borabenzo[cd]azulen-2-yl)methanamine Hydrochloride]	0.16	>64	>64			>64	>64		
CC1(C)COc2ccc(Cl)c3c2B(OC3CN)O1.Cl (stereo not drawn) [Example 11, (3-chloro-8,8-di methyl-7,8-dihydro-2H-1,6,9-trioxa-9a-borabenzo[cd]azulen-2-yl)methanamine Hydrochloride]	0.27	>64	>64			>64	>64	>50	Selectivity Index (A/B) (HepG2 cells; hydrochloride): >185
CC1(C)COc2ccc(Cl)c3c2B(O[C@@H]3CN)O1.Cl [Example 12, (S)-(3-chloro-8,8-dimethyl-7,8-dihydro-2H-1,6,9-trioxa-9a-borabenzo[cd]azulen-2-yl)methanamine Hydrochloride]	0.08	>64	>64			>64	>64		
Cl.NC[C@H]1OB2O[C@H](CO)COc3ccc(F)c1c32 [Example 13, ((2S,8R)-2-(aminomethyl)-3-fluoro-7,8-dihydro-2H-1,6,9-trioxa-9a-borabenzo[cd]azulen-8-yl)methanol Hydrochloride]	0.55							>50	Selectivity Index (A/B) (HepG2 cells): >10
C[C@]1(CO)COc2ccc(Cl)c3c2B(OC3CN)O1 (stereo partly drawn) [Example 15, ((2S, 8S, or 2R, 8R)-2-(aminomethyl)-3-chloro-8-methyl-7,8-dihydro-2H-1,6,9-trioxa-9a-borabenzo[cd]azulen-8-yl)methanol]	0.93 (≈ 0.264 µg/mL)			>50	>50				
C[C@@]1(CO)COc2ccc(Br)c3c2B(OC3CN)O1 (stereo partly drawn) [Example 16, ((2S, 8R, or 2R, 8S)-2-(aminomethyl)-3-bromo-8-methyl-7,8-dihydro-2H-1,6,9-trioxa-9a-borabenzo[cd]azulen-8-yl)methanol]	1.25 (≈ 0.41 µg/mL)			>40	>50				
c1cc2c3c(c1)OCCOB3OC2 [Example C1-H, reference compound]									MIC [1, 5]: 31 µM (≈ 5.46 µg/mL)
NCCOc1cccc2c1B(O)OC2 [Example C3-H, reference compound]				>0.8				>50	MIC [1, 5]: 62 µM (≈ 12 µg/mL)
CCOc1cccc2c1B(O)O[C@@H]2CN [Example C5-H, reference compound]				3				1.8	MIC [1, 5]: 0.6 µM (≈ 0.124 µg/mL)
CC1COc2c(Cl)cc(Cl)c3c2B(O1)OC3CN (stereo not drawn) [Example C7-Cl2, reference compound]	2.5 (≈ 0.72 µg/mL)			>20	>50				
CC1(C)COc2c(Cl)ccc3c2B(OC3CN)O1 (stereo not drawn) [Example C8-Cl, reference compound]	> 5			10	>50				
CC1(C)COB2OC(CN)c3c(Cl)ccc(c32)O1 (stereo not drawn) [Example C9-Cl, reference compound]	5 (≈ 1.34 µg/mL)			>10	>50				
CC1(C)COB2OC(CN)c3cccc(c32)O1 (stereo not drawn) [Example C10-H, reference compound]	> 5			10	>50				
CC1COc2cccc3c2B(O1)OC3CN (stereo not drawn) [Example C11-H, reference compound]	1.56 (≈ 0.342 µg/mL)	4 (≈ 18.3 µM)	2 (≈ 9.13 µM)	>32	> 50	2 (≈ 9.13 µM)	2 (≈ 9.13 µM)		HepG2 cell 48 h, figure in brackets beside Tox50 (HepG2 cells; 48 h, printed as >50 (40%)): 40%
CC1(C)COc2cccc3c2B(OC3CN)O1 (stereo not drawn) [Example C12-H, reference compound]	> 5	4 (≈ 17.2 µM)	16 (≈ 68.6 µM)	>4.9	24.5	2 (≈ 8.58 µM)	4 (≈ 17.2 µM)		
NC[C@H]1OB2OCCOc3c(Cl)cc(Cl)c1c32 [Example C14-Cl2, reference compound]	> 5			>10	>50				
NC[C@H]1OB2OCCOc3ccc(Cl)c1c32 [Example G4-Cl]									MIC ([2]; for all of but 1 of the 40 clinical isolate strains tested): < 1 µM; MIC ([2]; read-out: measured MIC (breakdown), for 1 strain of 97 clinical isolates): ≤ 0.2 µM; MIC ([2]; read-out: measured MIC (breakdown), for 3 strains of 97 clinical isolates): 0.31 µM (≈ 0.0742 µg/mL); MIC ([2]; read-out: measured MIC (breakdown), for 8 strains of 97 clinical isolates (first group)): 0.04 µM (≈ 0.00958 µg/mL); MIC ([2]; read-out: measured MIC (breakdown), for 8 strains of 97 clinical isolates (second group)): 0.16 µM (≈ 0.0383 µg/mL); MIC ([2]; read-out: measured MIC (breakdown), for 76 strains of 97 clinical isolates): 0.08 µM (≈ 0.0192 µg/mL)
